Reference: the NIST ThermoML archive (doi:10.1016/j.jct.2017.06.013)

Assay: xn = mol fraction of the nth substance listed
Details: Liquid, Vibrating tube method

CC(C)OC(C)C [diisopropyl ether] + CCCCCCO
mass density [kg/m3]
Details	293.15 K	313.15 K	333.15 K	353.15 K	373.15 K	393.15 K
100 kPa, x1 = 0.1524	806.7	791.5	775.6	759.2	741.8	–
100 kPa, x1 = 0.3196	792.1	776	759.2	741.7	723.3	–
100 kPa, x1 = 0.4906	776.3	759.1	741.1	722.5	702.7	–
100 kPa, x1 = 0.6974	756.4	737.8	718.3	698	676.5	–
100 kPa, x1 = 0.8457	741.2	721.4	700.6	679.1	656.3	–
500 kPa, x1 = 0.1524	806.9	791.8	776	759.5	742	724.7
500 kPa, x1 = 0.3196	792.3	776.3	759.6	742.1	723.5	705
500 kPa, x1 = 0.4906	776.7	759.5	741.6	723	703.1	683.5
500 kPa, x1 = 0.6974	756.8	738.2	718.8	698.5	677	655.7
500 kPa, x1 = 0.8457	741.7	721.9	701.3	679.8	657	634.2
1000 kPa, x1 = 0.1524	807.2	792.2	776.5	760	742.6	725.4
1000 kPa, x1 = 0.3196	792.7	776.7	760.1	742.7	724.1	705.7
1000 kPa, x1 = 0.4906	777.1	760	742.2	723.6	703.9	684.4
1000 kPa, x1 = 0.6974	757.3	738.8	719.5	699.3	678	656.8
1000 kPa, x1 = 0.8457	742.2	722.5	702.1	680.7	658.1	635.6
2000 kPa, x1 = 0.1524	807.9	793	777.4	761	743.8	726.7
2000 kPa, x1 = 0.3196	793.5	777.6	761.1	743.8	725.5	707.3
2000 kPa, x1 = 0.4906	777.9	761	743.3	724.9	705.4	686.3
2000 kPa, x1 = 0.6974	758.3	739.9	720.8	700.8	679.9	659.1
2000 kPa, x1 = 0.8457	743.3	723.8	703.6	682.5	660.3	638.4
5000 kPa, x1 = 0.1524	810	795.3	780	764	747.1	730.5
5000 kPa, x1 = 0.3196	795.7	780.2	764	747.1	729.2	711.7
5000 kPa, x1 = 0.4906	780.4	763.9	746.7	728.8	709.9	691.5
5000 kPa, x1 = 0.6974	761.1	743.3	724.7	705.4	685.2	665.6
5000 kPa, x1 = 0.8457	746.4	727.5	707.9	687.6	666.5	645.9
10000 kPa, x1 = 0.1524	813.4	799	784.2	768.7	752.4	736.6
10000 kPa, x1 = 0.3196	799.5	784.3	768.7	752.4	735.3	718.7
10000 kPa, x1 = 0.4906	784.5	768.4	751.8	734.8	716.7	699.5
10000 kPa, x1 = 0.6974	765.7	748.4	730.6	712.3	693.4	675.3
10000 kPa, x1 = 0.8457	751.4	733.2	714.5	695.5	675.7	657
15000 kPa, x1 = 0.1524	816.6	802.6	788.1	773.1	757.3	742.1
15000 kPa, x1 = 0.3196	803	788.2	773	757.3	740.8	724.9
15000 kPa, x1 = 0.4906	788.3	772.7	756.7	740.2	723	706.6
15000 kPa, x1 = 0.6974	770	753.3	736.1	718.7	700.7	683.6
15000 kPa, x1 = 0.8457	756.1	738.5	720.6	702.5	683.8	666.4
20000 kPa, x1 = 0.1524	819.7	806	791.8	777.3	761.9	747.3
20000 kPa, x1 = 0.3196	806.4	791.9	777.1	761.9	745.9	730.7
20000 kPa, x1 = 0.4906	792	776.8	761.2	745.3	728.8	713.2
20000 kPa, x1 = 0.6974	774.1	757.8	741.3	724.5	707.3	691.2
20000 kPa, x1 = 0.8457	760.5	743.4	726.2	708.9	691.2	674.9
30000 kPa, x1 = 0.1524	825.7	812.4	798.8	785	770.5	756.7
30000 kPa, x1 = 0.3196	812.8	798.9	784.8	770.4	755.4	741.1
30000 kPa, x1 = 0.4906	799	784.3	769.6	754.6	739.1	724.7
30000 kPa, x1 = 0.6974	781.7	766.2	750.7	735	719.1	704.4
30000 kPa, x1 = 0.8457	768.7	752.5	736.4	720.4	704.1	689.3
40000 kPa, x1 = 0.1524	831.2	818.5	805.4	792	778.2	765.3
40000 kPa, x1 = 0.3196	818.6	805.4	791.9	778	763.8	750.4
40000 kPa, x1 = 0.4906	805.3	791.4	777.3	762.9	748.4	735
40000 kPa, x1 = 0.6974	788.6	773.9	759.3	744.3	729.4	715.8
40000 kPa, x1 = 0.8457	776	760.8	745.6	730.4	715.3	701.7
50000 kPa, x1 = 0.1524	836.3	823.9	811.3	798.5	785.2	772.8
50000 kPa, x1 = 0.3196	824.1	811.2	798.3	785	771.3	758.6
50000 kPa, x1 = 0.4906	811.2	797.7	784.2	770.5	756.6	743.9
50000 kPa, x1 = 0.6974	795	780.9	766.8	752.6	738.5	725.7
50000 kPa, x1 = 0.8457	782.9	768.2	753.8	739.4	725	712.2
60000 kPa, x1 = 0.1524	841.3	829.3	817	804.6	791.8	779.9
60000 kPa, x1 = 0.3196	829.4	817	804.4	791.6	778.4	766.4
60000 kPa, x1 = 0.4906	816.8	803.8	790.7	777.6	764.2	752.2
60000 kPa, x1 = 0.6974	801	787.5	773.8	760.6	746.9	734.8
60000 kPa, x1 = 0.8457	789.3	775.1	761.2	747.7	733.9	721.9
70000 kPa, x1 = 0.1524	846.1	834.3	822.4	810.3	797.9	786.7
70000 kPa, x1 = 0.3196	834.5	822.3	810.1	797.7	784.9	773.5
70000 kPa, x1 = 0.4906	822.1	809.5	796.8	784.2	771.3	759.9
70000 kPa, x1 = 0.6974	806.7	793.6	780.5	767.6	754.5	743.1
70000 kPa, x1 = 0.8457	795.3	781.7	768.3	755.2	742	730.7
80000 kPa, x1 = 0.1524	850.4	839	827.3	815.7	803.8	792.8
80000 kPa, x1 = 0.3196	839.1	827.3	815.4	803.3	791.2	779.9
80000 kPa, x1 = 0.4906	827.1	814.7	802.4	790.1	778	766.8
80000 kPa, x1 = 0.6974	812	799.3	786.6	774.1	761.8	750.5
80000 kPa, x1 = 0.8457	800.8	787.7	774.7	762.1	749.5	738.5
90000 kPa, x1 = 0.1524	854.7	843.4	832.2	820.8	809.2	798.6
90000 kPa, x1 = 0.3196	843.6	832	820.4	808.9	796.9	786.1
90000 kPa, x1 = 0.4906	831.8	819.7	807.8	796.1	784	773.4
90000 kPa, x1 = 0.6974	817.1	804.6	792.4	780.4	768.3	757.6
90000 kPa, x1 = 0.8457	806.1	793.2	780.8	768.7	756.4	745.9
100000 kPa, x1 = 0.1524	858.8	847.8	836.8	825.7	814.3	804.1
100000 kPa, x1 = 0.3196	848	836.6	825.3	814	802.4	791.8
100000 kPa, x1 = 0.4906	836.3	824.6	813	801.5	789.8	779.5
100000 kPa, x1 = 0.6974	822	809.8	797.9	786.2	774.4	764.1
100000 kPa, x1 = 0.8457	811.2	798.7	786.7	774.8	762.8	752.7
110000 kPa, x1 = 0.1524	862.7	852	841.1	830.4	819.4	809.4
110000 kPa, x1 = 0.3196	852	841	829.8	818.9	807.6	797.5
110000 kPa, x1 = 0.4906	840.6	829.2	817.8	806.7	795.3	785.4
110000 kPa, x1 = 0.6974	826.6	814.6	803	791.7	780.3	770.3
110000 kPa, x1 = 0.8457	816	803.8	792	780.5	769	759.2
120000 kPa, x1 = 0.1524	866.5	855.9	845.5	834.9	824.2	814.4
120000 kPa, x1 = 0.3196	856	845.2	834.4	823.6	812.6	802.7
120000 kPa, x1 = 0.4906	844.8	833.6	822.6	811.6	800.6	790.8
120000 kPa, x1 = 0.6974	830.9	819.3	808.1	796.9	785.9	776.1
120000 kPa, x1 = 0.8457	820.5	808.7	797.4	786	774.7	765.1
130000 kPa, x1 = 0.1524	870.3	859.9	849.4	839.1	828.6	819.1
130000 kPa, x1 = 0.3196	859.9	849.2	838.6	828	817.3	807.6
130000 kPa, x1 = 0.4906	848.9	837.8	827	816.3	805.5	796
130000 kPa, x1 = 0.6974	835.2	823.9	812.8	801.9	791.1	781.5
130000 kPa, x1 = 0.8457	825	813.4	802.2	791.1	780.2	770.8
140000 kPa, x1 = 0.1524	873.7	863.6	853.4	843.2	833	823.7
140000 kPa, x1 = 0.3196	863.5	853.2	842.8	832.4	821.8	812.4
140000 kPa, x1 = 0.4906	852.6	841.9	831.4	820.8	810.2	801
140000 kPa, x1 = 0.6974	839.2	828.2	817.4	806.6	796.1	786.8
140000 kPa, x1 = 0.8457	829	817.9	807	796	785.3	776.3
